# According to patent US6043217A, “Amide derivative of amythiamicin” (Zaidan Hojin Biseibutsu Kagaku Kenyu Kai, priority 1996, dated 2000):
# Key:
# Format in all cases: cell-based
# Escherichia coli BE 1186 = test: MIC, standard serial dilution method; conditions: Muller-Hinton agar medium, 37° C.
# [1] = test system: Staphylococcus aureus FDA 209P; test: MIC, standard serial dilution method; conditions: Muller-Hinton agar medium, 37° C.
# [2] = test system: Staphylococcus aureus MS 9610; test: MIC, standard serial dilution method; conditions: Muller-Hinton agar medium, 37° C.
# Bacillus anthracis = conditions: Muller-Hinton agar medium, 37° C.
# Candida albicans 3147 = test: MIC, standard serial dilution method; conditions: Muller-Hinton agar medium, 37° C.
# [3] = test system: Pseudomonas aeruginosa A3; test: MIC, standard serial dilution method; conditions: Muller-Hinton agar medium, 37° C.
# Shigella sonnei JS 11746 = test: MIC, standard serial dilution method; conditions: Muller-Hinton agar medium, 37° C.
# Protocol: (§1) The antibacterial activities of the amythiamicin amide derivative of the general formula (I) according to this invention are now concretely described. Compounds No. 1 to No. 11 according to this invention, which were respectively prepared in Examples 1 to 11 hereinafter given, were tested as the test compounds for their minimum inhibitory concentrations (MIC.) (μg/ml) against growth of a variety of test microorganisms by a standard serial dilution method. In the tests, the incubation medium used was Muller-Hinton agar medium and the incubation temperature was 37° C. The test results are shown as antibacterial spectra in the following Tables 2 and 3.
# [4] = test system: Escherichia coli K-12 ML 1692; test: MIC, standard serial dilution method; conditions: Muller-Hinton agar medium, 37° C.
# Protocol: as §1
# [5] = test system: Shigella clexnerl JS 11749; test: MIC, standard serial dilution method; conditions: Muller-Hinton agar medium, 37° C.
# Protocol: as §1
# [6] = test system: Micrococcus luteus IFO 3333; test: MIC, standard serial dilution method; conditions: Muller-Hinton agar medium, 37° C.
# Escherichia coli K-12 = test: MIC, standard serial dilution method; conditions: Muller-Hinton agar medium, 37° C.
# [7] = test system: Bacillus cereus ATCC 10702; test: MIC, standard serial dilution method; conditions: Muller-Hinton agar medium, 37° C.
# [8] = test system: Bacillus subtilis PCI 219; test: MIC, standard serial dilution method; conditions: Muller-Hinton agar medium, 37° C.
# Escherichia coli NIHJ = test: MIC, standard serial dilution method; conditions: Muller-Hinton agar medium, 37° C.
# [9] = test system: Corynebacterium bovis 1810; test: MIC, standard serial dilution method; conditions: Muller-Hinton agar medium, 37° C.
# [10] = test system: Providencia rettgeri GN 466; test: MIC, standard serial dilution method; conditions: Muller-Hinton agar medium, 37° C.
# [11] = test system: Escherichia coli BEM 1121; test: MIC, standard serial dilution method; conditions: Muller-Hinton agar medium, 37° C.
# [12] = test system: Pseudomonas aeruginosa GN315; test: MIC, standard serial dilution method; conditions: Muller-Hinton agar medium, 37° C.
# [13] = test system: Staphylococcus aureus TY-0428; test: MIC, standard serial dilution method; conditions: Muller-Hinton agar medium, 37° C.
# [14] = test system: Salmonella enteritidis 1891; test: MIC, standard serial dilution method; conditions: Muller-Hinton agar medium, 37° C.
# Serratia marcescens = test: MIC, standard serial dilution method; conditions: Muller-Hinton agar medium, 37° C.
# Proteus vulgaris OX 19 = test: MIC, standard serial dilution method; conditions: Muller-Hinton agar medium, 37° C.
# [15] = test system: Klebsiella pneumonia PCI 602; test: MIC, standard serial dilution method; conditions: Klebsiella pneumonia PCI 602 (Table 2); Muller-Hinton agar medium, 37° C.
# [16] = test system: Staphylococcus aureus No. 5 (MRSA); test: MIC, standard serial dilution method; conditions: Muller-Hinton agar medium, 37° C.
# [17] = test system: Bacillus subtilis NRRL B-558; test: MIC, standard serial dilution method; conditions: Muller-Hinton agar medium, 37° C.
# [18] = test system: Staphylococcus aureus No. 17 (MRSA); test: MIC, standard serial dilution method; conditions: Muller-Hinton agar medium, 37° C.
# [19] = test system: Micrococcus luteus FDA 16; test: MIC, standard serial dilution method; conditions: Muller-Hinton agar medium, 37° C.
# [20] = test system: Proteus mirabilis IFM OM-9; test: MIC, standard serial dilution method; conditions: Muller-Hinton agar medium, 37° C.
# [21] = test system: Providencia rettgeri GN 311; test: MIC, standard serial dilution method; conditions: Muller-Hinton agar medium, 37° C.
# [22] = test system: Shigella dysenteria JS 11910; test: MIC, standard serial dilution method; conditions: Muller-Hinton agar medium, 37° C.
# [23] = test system: Staphylococcus aureus MS 16526; test: MIC, standard serial dilution method; conditions: Muller-Hinton agar medium, 37° C.
# [24] = test system: Staphylococcus aureus Smith; test: MIC, standard serial dilution method; conditions: Muller-Hinton agar medium, 37° C.
# Salmonella typhi T-63 = test: MIC, standard serial dilution method; conditions: Muller-Hinton agar medium, 37° C.
# [25] = test system: Micrococcus luteus PIC 1001; test: MIC, standard serial dilution method; conditions: Muller-Hinton agar medium, 37° C.
# Escherichia coli BEM 11 = test: MIC, standard serial dilution method; conditions: Muller-Hinton agar medium, 37° C.
structure (smiles),measurement,setting,value
CNC(=O)CC1NC(=O)c2csc(n2)-c2ccc(-c3nc(C(=O)NCCCCCC(=O)OC)cs3)nc2-c2csc(n2)-c2csc(n2)C(C(C)C)NC(=O)CNC(=O)c2csc(n2)C(C(C)C)NC(=O)c2nc1sc2C (centres unmarked) [Compound No. 1],Minimum growth inhibitory concentrations (MIC.),Escherichia coli BE 1186,> 100 µg/mL
same,Minimum growth inhibitory concentrations (MIC.),[1],50 µg/mL
same,Minimum growth inhibitory concentrations (MIC.),[2],> 100 µg/mL
same,Minimum growth inhibitory concentrations (MIC.),Bacillus anthracis,0.98 µg/mL
same,Minimum growth inhibitory concentrations (MIC.),Candida albicans 3147,> 100 µg/mL
same,Minimum growth inhibitory concentrations (MIC.),[3],> 50 µg/mL
same,Minimum growth inhibitory concentrations (MIC.),Shigella sonnei JS 11746,> 100 µg/mL
same,Minimum growth inhibitory concentrations (MIC.),[4],> 100 µg/mL
same,Minimum growth inhibitory concentrations (MIC.),[5],> 100 µg/mL
same,Minimum growth inhibitory concentrations (MIC.),[6],> 100 µg/mL
same,Minimum growth inhibitory concentrations (MIC.),Escherichia coli K-12,> 100 µg/mL
same,Minimum growth inhibitory concentrations (MIC.),[7],3.13 µg/mL
same,Minimum growth inhibitory concentrations (MIC.),[8],> 100 µg/mL
same,Minimum growth inhibitory concentrations (MIC.),Escherichia coli NIHJ,> 100 µg/mL
same,Minimum growth inhibitory concentrations (MIC.),[9],> 100 µg/mL
same,Minimum growth inhibitory concentrations (MIC.),[10],> 100 µg/mL
same,Minimum growth inhibitory concentrations (MIC.),[11],> 100 µg/mL
same,Minimum growth inhibitory concentrations (MIC.),[12],> 100 µg/mL
same,Minimum growth inhibitory concentrations (MIC.),[13],> 100 µg/mL
same,Minimum growth inhibitory concentrations (MIC.),[14],> 100 µg/mL
same,Minimum growth inhibitory concentrations (MIC.),Serratia marcescens,> 100 µg/mL
same,Minimum growth inhibitory concentrations (MIC.),Proteus vulgaris OX 19,> 100 µg/mL
same,Minimum growth inhibitory concentrations (MIC.),[15],> 100 µg/mL
same,Minimum growth inhibitory concentrations (MIC.),[16],> 100 µg/mL
same,Minimum growth inhibitory concentrations (MIC.),[17],> 100 µg/mL
same,Minimum growth inhibitory concentrations (MIC.),[18],> 100 µg/mL
same,Minimum growth inhibitory concentrations (MIC.),[19],> 100 µg/mL
same,Minimum growth inhibitory concentrations (MIC.),[20],> 100 µg/mL
same,Minimum growth inhibitory concentrations (MIC.),[21],> 100 µg/mL
same,Minimum growth inhibitory concentrations (MIC.),[22],> 100 µg/mL
same,Minimum growth inhibitory concentrations (MIC.),[23],> 100 µg/mL
same,Minimum growth inhibitory concentrations (MIC.),[24],> 100 µg/mL
same,Minimum growth inhibitory concentrations (MIC.),Salmonella typhi T-63,> 100 µg/mL
same,Minimum growth inhibitory concentrations (MIC.),[25],3.13 µg/mL
same,Minimum growth inhibitory concentrations (MIC.),Escherichia coli BEM 11,> 100 µg/mL
